Results on eight molecules are retold here after ChEMBL document CHEMBL5113410, “Novel flavonoid hybrids as potent antiviral agents against hepatitis A: Design, synthesis and biological evaluation” (Eur J Med Chem, 2022).

Data set [1] concerns Huh7.5.1. The data set can be described thus: Cytotoxicity in human Huh-7.5.1 cells assessed as reduction in cell viability at 10 uM incubated for 72 hrs by CellTiter-Glo luminescent cell viability assay. Format: toxicity, cell-based. To be noted: huh7.5.1, 72 h. On the technique in general: ATP-based viability assays read luminescence as a measure of living cells.
For data set [2], the system named is Hepatovirus A. As to the kind of experiment: Antiviral activity against hepatitis A virus genotype 1b infected in human Huh-7.5.1 cells assessed as reduction in virus production at 10 uM incubated for 72 hrs by Nano-Glo luciferase assay. It counts as functional, organism-based.
Data set [3] deals with Hepatovirus A. The data set can be described thus: Antiviral activity against hepatitis A virus TICM005 infected in human Huh-7.5.1 cells assessed as reduction in cytoplasmic viral RNA level at 5 to 20 uM incubated for 72 hrs dosed after infection for 6 hrs by RT-qPCR method. It counts as functional, organism-based. The note with it: TICM005, Huh-7.5.1. A general note: Real-time PCR tracks product formation cycle by cycle.

Data set [4] in a line: Cytotoxicity in human Huh-7.5.1 cells assessed as reduction in cell viability incubated for 72 hrs by CellTiter-Glo luminescent cell viability assay. Format: toxicity, cell-based, Huh7.5.1.
The subject of data set [5] is Hepatovirus A. As to the kind of experiment: Antiviral activity against hepatitis A virus genotype 1b infected in human Huh-7.5.1 cells assessed as reduction in virus production at 10 uM incubated for 72 hrs after 6 hrs HAV/NLuc infection by Nano-Glo luciferase assay. It counts as functional, organism-based.
In data set [6] the test system is Hepatovirus A. As to the kind of experiment: Antiviral activity against hepatitis A virus KRM031 infected in human Huh-7.5.1 cells assessed as reduction in cytoplasmic viral RNA level at 5 to 20 uM incubated for 72 hrs dosed after infection for 6 hrs by RT-qPCR method. It counts as functional, organism-based. The note with it: KRM031, Huh-7.5.1.
Data set [7] can be described thus: Selectivity index, ratio of CC50 for Cytotoxicity in human Huh-7.5.1 cells to EC50 for Antiviral activity against hepatitis A virus genotype 1b infected in human Huh-7.5.1 cells. Format: toxicity, cell-based. The note with it: read-out: Ratio CC50/EC50.
For data set [8], the system named is Hepatovirus A. The data set can be described thus: Antiviral activity against hepatitis A virus infected in human Huh-7.5.1 cells assessed as reduction in viral RNA replication at 2 to 50 uM incubated for 72 hrs by luciferase reporter dependent subgenomic replicon assay. It counts as functional. The note with it: dose 2-50 µM. In general terms: Reporter assays use an easily measured gene product as a stand-in for the process of interest.

The test system of data set [9] is Hepatovirus A. The data set can be described thus: Antiviral activity against hepatitis A virus HM175/18f infected in human Huh-7.5.1 cells assessed as reduction in HM175 production at 2 to 50 uM incubated for 72 hrs by RT-qPCR method. Format: functional, organism-based. To be noted: dose 2-50 µM, DDE = dose-dependent effect.
Data set [10] deals with Hepatovirus A. As to the kind of experiment: Antiviral activity against hepatitis A virus genotype 1b infected in human Huh-7.5.1 cells assessed as reduction in virus production incubated for 72 hrs by Nano-Glo luciferase assay. Format: functional, organism-based. To be noted: for Activity: DDE = dose-dependent effect; for EC50: Huh-7.5.1, 72 h.
Data set [11] deals with Hepatovirus A. The data set can be described thus: Antiviral activity against hepatitis A virus HM175 infected in human Huh-7.5.1 cells assessed as reduction in HAV2c Protein expression at 10 uM incubated for 48 hrs by immunofluorescence assay. Format: functional, organism-based.

The structures appear in SMILES notation. Active and inactive are the calls of the source. The calls are words filed in the database; no cut-off is given here.

Consider `COc1ccc(/C=N/NC(=O)COc2cc(OC)c3c(c2)OC(c2cc(OC)c(OC)c(OC)c2)CC3)cc1` (stereo unspecified), for which the Activity entry in [1] is recorded as “Toxic”. Moreover, the outcome in data set [2] was Active.

In general, EC50 refers to the concentration at which the effect is half-maximal. What is called CC50 is the concentration that lowers cell viability or growth by half. Regarding `COc1cc(OCC(=O)N/N=C/c2ccc(C)cc2)cc2c1CCC(c1cc(OC)c(OC)c(OC)c1)O2` (stereo unspecified), the figures for the Activity entry in data set [1] and in data set [10] were “Non-Toxic” and “Dde”, respectively. Also, the results for the EC50 in data set [3], in data set [6] and in data set [10] were over 20 µM, over 20 µM and 9.3 µM, respectively. Moreover, the CC50 at 72 h in [4] is 103 µM. The inhibition result in data set [5] was “Active”. The selectivity ratio in data set [7] came out at 11.1. The result in data set [2] and in data set [11] was Active. Also, the “inhibition (INH)” value in data set [8] turned out to be 56.4%. In addition, the inhibition entry in data set [9] is “Dde”.

As for `COc1cc(OCC(=O)N/N=C/c2ccc(Cl)cc2)cc2c1CCC(c1cc(OC)c(OC)c(OC)c1)O2` (stereo unspecified), the Activity result in data set [1] was “Non-Toxic”; in data set [10], “Dde”. In addition, the EC50 in [3] is 14.2 µM; in data set [6] it was 13.1 µM; in data set [10] it was 5.5 µM. Moreover, the CC50 at 72 h in data set [4] is 89.8 µM. In data set [5], the inhibition result was “Active”. For the same molecule, the selectivity ratio in data set [7] was determined as 16.3. The result in [2] and in [11] was Active. For the same molecule, the “inhibition (INH)” value in [8] was 98.3%. Further, the inhibition entry in [9] is “Dde”.

On to `COc1cc(OCC(=O)N/N=C(\C)c2ccccc2O)cc2c1CCC(c1cc(OC)c(OC)c(OC)c1)O2` (stereo unspecified), for which the Activity result in data set [1] is given as “Toxic”. Also, in data set [2], the outcome was Active.

With `COc1cc(OCC(=O)N/N=C/c2ccc(Br)cc2)cc2c1CCC(c1cc(OC)c(OC)c(OC)c1)O2` (stereo unspecified), the Activity result in [1] is “Non-Toxic”; in [10] it was “Dde”. Also, the figures for the EC50 in [3], in data set [6] and in data set [10] were over 20 µM, over 20 µM and 6.1 µM, respectively. In addition, the CC50 at 72 h in data set [4] is 152 µM. In addition, the inhibition result in data set [5] is “Active”. Moreover, in data set [7], the selectivity ratio is 25. The outcome in data set [2] and in [11] was Active. For the same molecule, in data set [8], the “inhibition (INH)” value was found to be 93%. For the same molecule, in data set [9], the inhibition result is “Dde”.

Regarding `COc1cc(OCC(=O)N/N=C/c2ccc(Cl)c(O)c2)cc2c1CCC(c1cc(OC)c(OC)c(OC)c1)O2` (stereo unspecified), in data set [1], the Activity result is reported as “Toxic”. For the same molecule, the result in data set [2] was Active.

`COc1cc(OCC(=O)N/N=C/c2ccc(Cl)c(Cl)c2)cc2c1CCC(c1cc(OC)c(OC)c(OC)c1)O2` (stereo unspecified): the Activity entry in data set [1] was “Toxic”. In addition, the outcome in data set [2] was Active.

For `COc1cc(OCC(=O)N/N=C/c2ccc(Cl)s2)cc2c1CCC(c1cc(OC)c(OC)c(OC)c1)O2` (stereo unspecified), the Activity result was “Non-Toxic” in data set [1] and “Dde” in data set [10]. Moreover, the EC50 came out at 11.7 µM in data set [3], 8.5 µM in data set [6] and 5.3 µM in data set [10]. For the same molecule, the CC50 at 72 h in [4] worked out at 83.3 µM. Further, the inhibition entry in data set [5] is “Active”. The selectivity ratio in [7] was 15.7. Further, the outcome in data set [2] and in data set [11] was Active. Moreover, in data set [8], the “inhibition (INH)” value worked out at 98.1%. Moreover, in [9], the inhibition entry was “Dde”.
